Measurements: paper PMC3770654, “Gastric Antimicrobial Peptides Fail to Eradicate Helicobacter pylori Infection Due to Selective Induction and Resistance” (PLoS ONE, 2013)
Like-named read-outs stand apart in the source and are kept apart here.

Assays:
[1] = tested on: H. pylori KaE1, DSM 9691, DSM 10242 and DSM 21031; test: Flow cytometric viability assay with DiBAC4(3), four H. pylori strains; type: cell-based; conditions: for depolarized bacteria: all 4 H. pylori strains, 20 µg/ml peptide, Schaedler Broth 1:6, 37°C, 90 minutes, DiBAC4(3)
Protocol: (§1) The clinical isolate H. pylori KaE1 and the reference strains H. pylori DSM 9691, DSM 10242 and DSM 21031 were tested for susceptibility towards defensins, LL37 and elafin (amino acid sequences Table S1). The strain H. pylori DSM 10242 is positive for the virulence factors VacA and CagA. As control strain for antimicrobial activity served the sensitive E. coli ATCC 25922.
(§2) H. pylori strains were cultured on Columbia blood agar at 37 C° for 2 days in a microaerophilic atmosphere with CampyGen (Oxoid, Hampshire, UK). Subsequently the bacteria were suspended in Schaedler Broth (BD, Sparks, USA) diluted 1:6 with aqua dest. for incubation with antimicrobial peptides.
(§3) Bacterial viability after incubation with antimicrobial peptides or biopsy extracts was analyzed with the membrane potential sensitive dye DiBAC4(3) (bis-(1,3-dibutylbarbituric acid) trimethine oxonol) (Invitrogen, Carlsbad, CA, USA) as described previously. Briefly, 1.5x10^6 mid-logarithmic-phase bacteria/ml of H. pylori or E. coli in Schaedler Broth 1:6 were incubated with 20 µg/ml HBD1-4 (Peptide Institute, Osaka, Japan), elafin (Proteo Biotech, Kiel, Germany for FACS analysis and RDA and elafin from Peptide Institute, Osaka for CFU determination), with LL37 (Innovagen, Lund, Sweden) or with 10 µg total protein of antrum biopsy extracts at 37°C. After 90 minutes 1 µg/ml DiBAC4(3) was added to the suspensions and further incubated for 10 minutes. Then, the suspensions were centrifuged with 4500 x g for 10 minutes, pellets resuspended in 300 µl PBS and bacterial fluorescence was analyzed by a FACSCalibur^TM (BD, Sparks, USA), using Cell Quest software (BD, Sparks, USA). In each sample 10000 bacterial events were analyzed for green fluorescence and the antimicrobial activity was determined as percentage of depolarized, fluorescent bacteria. Inhibition of bacterial growth was tested by plating aliquots on Columbia blood agar and incubating at 37 C° for 2 days in a microaerophilic atmosphere with CampyGen (Oxoid, Hampshire, UK). Then colony forming units (CFU) were counted.

P. aeruginosa = test: Killing of P. aeruginosa by elafin (data not shown); type: cell-based
E. coli ATCC 25922 [2] = test: Flow cytometric viability assay with membrane potential sensitive dye DiBAC4(3); type: cell-based; conditions: for depolarized bacteria: 20 µg/ml peptide, 1.5x10^6 bacteria/ml in Schaedler Broth 1:6, 37°C, 90 minutes, then DiBAC4(3) 10 minutes, 10000 events
Protocol: as §1, §3

[3] = tested on: H. pylori KaE1, DSM 9691, DSM 10242 and DSM 21031; test: Radial diffusion assay, four H. pylori strains; type: cell-based; conditions: 20 µg peptide per well, 3 days, 37 °C
Protocol: (§4) Additionally to determine inhibition of bacterial growth we performed radial diffusion assays with a modified protocol of the procedure from Robert Lehrer et al.. Briefly, H. pylori was grown on Columbia blood agar (BD, Sparks, USA), suspended in Brain Heart Infusion diluted 1:5 with aqua dest. and plated on an agar containing 20% brain heart infusion with 5% fetal calf serum. Wells with 3 mm diameter were punched into the agar and peptides were applied equivalent to the flow cytometric assay in a concentration of 20 µg per well. The agar plates were incubated for 3 days at 37 °C in a microaerophilic atmosphere with CampyGen.

H. pylori KaE = test: Plating on Columbia blood agar with CFU counting; type: cell-based; conditions: peptide 20 µg/ml, means of two independent experiments, control 1.42 x 10^6
Protocol: as §2, §3

H. pylori DMS 9691 = test: Plating on Columbia blood agar with CFU counting; type: cell-based; conditions: peptide 20 µg/ml, means of two independent experiments, control 8.85 x 10^5
Protocol: as §2, §3

H. pylori DSM 21031 [4] = test: Plating on Columbia blood agar with CFU counting; type: cell-based; conditions: peptide 20 µg/ml, means of two independent experiments, control 7.45 x 10^5
Protocol: as §2, §3

H. pylori DSM 10242 = test: Plating on Columbia blood agar with CFU counting; type: cell-based; conditions: peptide 20 µg/ml, means of two independent experiments, control 6.10 x 10^5
Protocol: as §2, §3

E. coli ATCC 25922 [5] = test: Binding of antimicrobial peptides to bacterial cells (flow cytometry, Streptavidin-PE); conditions: 20 µg/ml biotinylated LL37 or 20 µg/ml HBD2 with biotinylated HBD2-antibody, 30 minutes
Protocol: (§5) To investigate whether HBD2 and LL37 bind to the bacterial cell membrane, we incubated E. coli or H. pylori in Schaedler Broth 1:6 with 20 µg/ml biotinylated LL37 (Innovagen, Lund, Sweden) or 20 µg/ml HBD2 (Peptide Institute, Osaka, Japan) for 30 minutes. After centrifugation a biotinylated HBD2-antibody was added to the in PBS resuspended pellet of the HBD2 samples (Peprotech, Hamburg, Germany). Following washing with PBS, binding of biotinylated LL37 or of the HBD2-antibody was detected with Streptavidin-PE (BD Biosciences, Heidelberg, Germany). Suspensions incubated with HBD2 antibody and Streptavidin served as control. Fluorescence 2 of 10 000 events was measured with the FACSCalibur.

H. pylori [6] = test: as above; conditions: 20 µg/ml biotinylated LL37 or 20 µg/ml HBD2 with biotinylated HBD2-antibody, 30 minutes
Protocol: as §5

H. pylori [7] = conditions: cited from earlier work; for growth inhibition: ref 19 Kawauchi et al.
From the text: Previously, Hase et al. had tested two H. pylori strains against the antimicrobials HBD1, HBD2 and LL37 and […], one strain tested was resistant to HBD1, while the second strain was sensitive. […] In the study by Hase et al. […] Th ...

H. pylori KaE1 [8] = test: Transmission electron microscopy of peptide-treated bacteria; type: cell-based; conditions: H. pylori KaE1, 1.5x10^8 bacteria, 200 µg peptide/ml, 2 hours
Protocol: For electron microscopy 1.5x10^8 bacteria were incubated with 200 µg peptide/ml for 2 hours. Subsequently bacteria were fixed with Karnovsky solution, embedded in agarose, coagulated, cut in blocks and fixed once more in Karnovsky. After post fixation and embedding in glycid ether the specimen were cut with an ultra microtome. Sections of 30 nm were rinsed on copper grids and investigated with a Zeiss LIBRA 120 transmission electron microscope.

H. pylori KaE1 [9] = test: Radial diffusion assay; type: cell-based; conditions: 20 µg peptide per well, 3 days, 37 °C
Protocol: as §4

H. pylori DSM 21031 [10] = test: Radial diffusion assay; type: cell-based; conditions: 20 µg peptide per well, 3 days, 37 °C
Protocol: as §4

## Ala - Gln - Glu - Pro - Val - Lys - Gly - Pro - Val - Ser - Thr - Lys - Pro - Gly - Ser - Cys - Pro - Ile - Ile - Leu - Ile - Arg - Cys - Ala - Met - Leu - Asn - Pro - Pro - Asn - Arg - Cys - Leu - Lys - Asp - Thr - Asp - Cys - Pro - Gly - Ile - Lys - Lys - Cys - Cys - Glu - Gly - Ser - Cys - Gly - Met - Ala - Cys - Phe - Val - Pro - Gln (disulfide) [Elafin, epithelial antiprotease elafin (PI3), cationic, 4 disulphide bridges; Proteo Biotech or Peptide Institute]
[1]; H. pylori, elafin peptides from different companies
  bactericidal effect: no bactericidal effect
[1]
  depolarized bacteria: less than 5%
P. aeruginosa
  killing of P. aeruginosa: limited killing
E. coli ATCC 25922 [2]
  depolarized bacteria: 4%
E. coli ATCC 25922 [2]; E. coli, elafin peptides from different companies
  bactericidal effect: no bactericidal effect
[3]; all four Helicobacter strains, microaerophilic
  zones of inhibition in radial diffusion assay: no zones of inhibition
H. pylori KaE
  Colony forming units: 1.29 x 10^6 CFU/ml
H. pylori DMS 9691
  Colony forming units: 9.59 x 10^5 CFU/ml
H. pylori DSM 21031 [4]
  Colony forming units: 6.82 x 10^5 CFU/ml
H. pylori DSM 10242
  Colony forming units: 4.85 x 10^5 CFU/ml

## Gly - Ile - Gly - Asp - Pro - Val - Thr - Cys - Leu - Lys - Ser - Gly - Ala - Ile - Cys - His - Pro - Val - Phe - Cys - Pro - Arg - Arg - Tyr - Lys - Gln - Ile - Gly - Thr - Cys - Gly - Leu - Pro - Gly - Thr - Lys - Cys - Cys - Lys - Lys - Pro (disulfide) [HBD2, human beta defensin 2, recombinant inducible defensin HBD2 (DEFB4A), Peptide Institute, Osaka]
[1]
  depolarized bacteria: less than 5%
E. coli ATCC 25922 [5]
  binding to the bacterial surface: accumulated on the surface
H. pylori [6]
  binding to the bacterial surface: accumulated on the surface
H. pylori [7]; 30 µg/ml HBD2
  growth inhibition: 70%
H. pylori [7]; 50 µg/ml HBD2
  growth inhibition: complete inhibition
H. pylori [7]; ref 20 Hase et al.
  effect on bacterial viability: no effect on bacterial viability
H. pylori KaE1 [8]
  disintegration of bacterial cells (electron microscopy): much less disintegration
E. coli ATCC 25922 [2]
  depolarized bacteria: 51%
[3]; the two other strains (not KaE1, not DSM 21031)
  growth in radial diffusion assay: not influenced
H. pylori KaE
  Colony forming units: 0.89 x 10^6 CFU/ml
H. pylori DMS 9691
  Colony forming units: 7.90 x 10^5 CFU/ml
H. pylori DSM 21031 [4]
  Colony forming units: 6.07 x 10^5 CFU/ml
H. pylori DSM 10242
  Colony forming units: 5.92 x 10^5 CFU/ml
H. pylori KaE1 [9]
  zones of inhibition in radial diffusion assay: small inhibition zones
H. pylori DSM 21031 [10]
  zones of inhibition in radial diffusion assay: small inhibition zones
